The test system of this assay is Candida albicans. The assay is described as follows: Concentration required to reduce the growth of Candida albicans to 50% of that in the control. In kind it is functional, organism-based.

The term IC50 denotes the concentration at which inhibition is half-maximal.

`OC(Cn1cncn1)(Cn1cncn1)c1ccc(-c2ccc(Cl)cc2)cc1` gave an IC50 of 7.19 µM. With `OC(Cn1cncn1)(Cn1cncn1)c1ccc(F)cc1F` [FLUCONAZOLE] the figure was 1.97 µM; with `COc1cc(C(F)(F)F)ccc1C(O)(Cn1cncn1)Cn1cncn1`, 28.5 µM. With `OC(Cn1cncn1)(Cn1cncn1)c1ccc(Oc2ccc(Cl)cc2)cc1` the figure was 6.94 µM; with `Cc1cc(F)ccc1C(O)(Cn1cncn1)Cn1cncn1`, 101 µM. With `OC(Cn1cncn1)(Cn1cncn1)c1ccc(C(F)(F)F)cc1` the figure was 3.25 µM. Take `OC(Cn1cncn1)(Cn1cncn1)c1ccccc1C(F)(F)F`: the midpoint of inhibition, the IC50, lay at 103 µM.

These data come from ChEMBL document CHEMBL1133695, “A three-dimensional model of lanosterol 14alpha-demethylase of Candida albicans and its interaction with azole antifungals” (J Med Chem, 2000).
